Series [1] addresses cytidine deaminase: CDA (1-146aa), Human, His-tagged, Recombinant (Homo sapiens, UniProt P32320). The series can be described thus: Stability against cytidine deaminase (HPLC). The protocol:
Stability of Silyl Etherified Derivatives of 5-azacytidines in Carbohydrate Moiety Against Cytidine Deaminase
About 1 mg each of the silyl etherified derivatives of 5-azacytidines in carbohydrate moiety (referring to formula (1a)) was dissolved in 1 mL of acetonitrile. 10 μL of the solution was diluted with 1 mL of PBS. 10 μL of PBS solution of cytidine deaminase was added to the solution and stirred at 37° C. for about 1 hour. 1 mL of acetonitrile was added to the reaction solution and separated by centrifugation. The supernatant was analyzed with HPLC.
Cytidine deaminase: CDA (1-146aa), Human, His-tagged, Recombinant cytidine deaminase (ATGen)
Column: CAPCELL PAK ADME (4.6 mm×150 mm, particle size: 3 μm)
Elution: eluate A=Purified water containing 10 mM ammonium formate • eluate B=Acetonitrile • Gradient mode: A:B=99:1→5:95/30 minutes

Series [2] has as its system RPMI-8226 myeloma cells. Put plainly: Anti-myeloma activity, inhibition of cell proliferation. In kind it is cell-based. To be noted: Homo sapiens, 72 hours incubation, cell count. The protocol:
After incubation in RPMI-1640 (containing 10% FBS and 1% Penn-strep) for 72 hours, cell count was determined and IC50 values were calculated as inhibitory effect against cell proliferation (referring to Journal of Clinical Pathology, 2006, 59, 947-951.).

Series [3] can be described thus: Non-enzymatic hydrolysis in PBS solution at 37° C. (HPLC). In kind it is physicochemical. To be noted: 10 mM PBS; for 5-Azacytidine or 2′-deoxy-5-azacytidine (%) After 4 hours / 5-Azacytidine or 2′-deoxy-5-azacytidine (%) After 8 hours / 5-Azacytidine or 2′-deoxy-5-azacytidine (%) After 24 hours: released parent by HPLC; for production of the desilylated parent (5-azacytidine or 2′-deoxy-5-azacytidine): traced by HPLC. The protocol: Non-Enzymatic Hydrolysis of Silyl Etherified Derivatives of 5-Azacytidines in Carbohydrate Moiety
5 μL of the solution was added to 100 μL of 10 mM PBS solution and stirred at 37° C. The reactions were traced by HPLC analysis.
HPLC conditions were same as those in test example 1.

Where [4] appears, read: PBS, cytidine deaminase, 37° C., about 1 hour, peak of the starting material.

Read-outs that look alike come from different tables or passages of the source.

Sequence of cytidine deaminase: CDA (1-146aa), Human, His-tagged, Recombinant (P32320 whole entry): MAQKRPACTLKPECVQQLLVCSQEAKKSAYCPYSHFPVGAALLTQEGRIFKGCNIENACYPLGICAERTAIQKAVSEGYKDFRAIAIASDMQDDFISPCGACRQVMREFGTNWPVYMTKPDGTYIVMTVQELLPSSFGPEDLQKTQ

One may read the IC50 as the concentration at which inhibition is half-maximal. On to `Nc1ncn([C@H]2C[C@H](O)[C@@H](CO)O2)c(=O)n1` [2′-Deoxy-5-azacytidine, 2′-deoxy-5-azacytidine, reference compound], for which the “stability against cytidine deaminase (in words)” value in series [1] (PBS, cytidine deaminase, 37° C.) is listed as “disappeared completely”. Also, the “Change in HPLC pattern” value in series [1] (setting [4]) is listed as “The peak of the starting material disappeared”. Also, the IC50 in series [2] is 30 nM.
Take `CC(C)(C)[Si](C)(C)OC[C@H]1O[C@@H](n2cnc(N)nc2=O)[C@H](O)[C@@H]1O` [compound E, 5′-O-(tert-Butyldimethylsilyl)-5-azacytidine]: the “Change in HPLC pattern” value in series [1] is on record as “Almost no change in the peak of the starting”.
For `CC[Si](CC)(CC)OC[C@H]1O[C@@H](n2cnc(N)nc2=O)[C@H](O)[C@@H]1O` [compound J, 5′-O-Triethylsilyl-5-azacytidine], the “Change in HPLC pattern” value in series [1] was “Almost no change in the peak of the starting”. The midpoint of inhibition in series [2], the IC50, lay at 656 nM. In addition, in series [3], the “5-Azacytidine or 2′-deoxy-5-azacytidine (%) After 4 hours” value is reported as 16%, the “5-Azacytidine or 2′-deoxy-5-azacytidine (%) After 8 hours” value is reported as 22%, the “5-Azacytidine or 2′-deoxy-5-azacytidine (%) After 24 hours” value was determined as 62% and the “production of the desilylated parent (5-azacytidine or 2′-deoxy-5-azacytidine)” value is “production of 5-azacytidine was confirmed”.
`CC[Si](CC)(CC)OC[C@H]1O[C@@H](n2cnc(N)nc2=O)C[C@@H]1O` [compound K, 5′-O-Triethylsilyl-2′-deoxy-5-azacytidine]: the “Change in HPLC pattern” value in series [1] (setting [4]) is on record as “Almost no change in the peak of the starting”. In series [2], half-maximal inhibition (IC50) was put at 270 nM. Moreover, in series [3], the “5-Azacytidine or 2′-deoxy-5-azacytidine (%) After 4 hours” value was 10%, the “5-Azacytidine or 2′-deoxy-5-azacytidine (%) After 8 hours” value was 12%, the “5-Azacytidine or 2′-deoxy-5-azacytidine (%) After 24 hours” value amounted to 48% and the “production of the desilylated parent (5-azacytidine or 2′-deoxy-5-azacytidine)” value is listed as “production of corresponding deskill form (2′-deoxy-5-azacytidine) was confirmed”.

For the origin of these results see patent US10227374B2, “Silyl etherified derivatives of 5-azacytidines in carbohydrate moiety” (OHARA PHARMACEUTICAL CO., LTD., priority 2016, dated 2019).
